# In patent US9271974B2, “Use of oxycodone for treating visceral pain” (PURDUE PHARMA L.P., priority 2005, dated 2016):
# Columns and labels:
# Type in all cases: in vivo, human
# visceral pain [1] = experiment: Experimental visceral pain, mechanical stimulation of the oesophagus via balloon distension, in healthy volunteers
# From the text: (§1) The experimental studies referred to below, are based on a comparison of different drugs at healthy volunteers by applying experimental pain, since clinical studies provide insufficient information, partly due to the great difference that exists between patients and partly due to the fact that most diseases produce many symptoms other than pain, which affects the assessment of pain-killing efficacy. Experimental pain can be administered under controlled conditions in healthy volunteers so that this bias can be avoided. However, several experimental stimuli are necessary to simulate the complex clinical situation. It is also necessary to use different opioids to obtain sufficient differentiated knowledge about deep pain on different pain mechanisms, and an assessment of the clinical action spectrum of opioids. For testing the efficacy of different opioids for treating visceral pain a standardized test battery of cutaneous, muscular and visceral stimuli was applied. Blood samples were taken for determination of the opioid concentration in plasma.
# (§2) In recent years methods by which deep and visceral stimuli can be administered reproducibly have been developed. These methods allow activation of the pain system with different stimuli, with the possibility of activating various types of nerve pathways in the same experiment. […]
# muscular pain = experiment: Experimental muscular pain (pressure, electrical stimuli in muscle) in healthy volunteers; conditions: for analgesic effect in muscle versus placebo: oral solution, morphine 30 mg, oxycodone 15 mg, FIG. 1
# From the text: as §1
# In recent years methods by which deep and visceral stimuli can be administered reproducibly have been developed. These methods allow activation of the pain system with different stimuli, with the possibility of activating various types of nerve pathways in the same experiment. In the trial described herein the efficacy of different opioids on different types of stimuli of skin, muscles and bowel in healthy volunteers have been compared. Cutaneous and muscular pain was administered by pressure, current and temperature (skin only). The stimulation of the internal organs was also produced by pressure via a balloon located at the bottom of the oesophagus. The balloon can be distended and produce mechanical stimuli, which feel like mild pain/discomfort. In addition, cold and heat stimuli can be administered by passing water of differing temperature through the balloon. […]
# visceral pain [2] = experiment: Experimental visceral pain, heat stimulation of the oesophagus via hot water into the balloon, in healthy volunteers
# From the text: as §1, §2
# cutaneous pain = experiment: Experimental cutaneous pain (pressure, electrical, thermal stimuli on skin) in healthy volunteers
# From the text: as §1, §2
# [3] = oral oxycodone 15 mg vs morphine 30 mg and placebo, FIG. 2
# [4] = oral, morphine 30 mg vs oxycodone 15 mg, all modalities tested
SMILES,"analgesic effect against mechanical stimulation in viscera (oesophagus), in comparison to placebo (visceral pain [1]; oral morphine 30 mg vs placebo)",analgesic effect in muscle versus placebo (muscular pain),"analgesic effect against heat pain stimulation in viscera (oesophagus), in comparison to placebo (visceral pain [2]; oral morphine 30 mg vs placebo)","analgesic effect against mechanical stimulation in viscera (oesophagus), in comparison to morphine and placebo (visceral pain [1]; [3])","analgesic effect in the skin versus placebo (cutaneous pain; oral solution, morphine 30 mg, oxycodone 15 mg, FIG. 1)",difference in analgesic effect between morphine and oxycodone in the skin (cutaneous pain; [4]),difference in analgesic effect between morphine and oxycodone in muscle (muscular pain; [4]),"analgesia against heat pain stimulation in viscera (oesophagus), in comparison to morphine and placebo (visceral pain [2]; [3])"
CN1CC[C@]23c4c5ccc(O)c4O[C@H]2[C@@H](O)C=C[C@H]3[C@H]1C5 [morphine],a certain analgesic effect,significantly more analgesic than placebo,a certain analgesic effect,–,–,–,–,–
COc1ccc2c3c1O[C@H]1C(=O)CC[C@@]4(O)[C@@H](C2)N(C)CC[C@]314 [oxycodone],–,significantly more analgesic than placebo,–,significantly better analgesic effect,significantly more analgesic than placebo,no significant difference between morphine and oxycodone,no significant difference between morphine and oxycodone,significantly greater analgesia
